Test results published in US20200016059A1, “PERSONAL CARE COMPOSITIONS WITH GLUTATHIONE PRECURSOR COMPRISING NICOTINAMIDE AND AMINO ACIDS” (Conopco, Inc., d/ba UNILEVER, priority 2016, published 2020).

How the values were obtained:
Type in all cases: cell-based
[1] = system: Aged Human Keratinocytes; assay: Glutathione assay (total glutathione, GSH-GSSG Glo) after menadione challenge; conditions: for % Protection (improvement vs. vehicle control + menadione): glutathione; for Mean (uM glutathione): Table 1A
From the text: The medium was refreshed every 2-3 days. Subsequently, cells were trypsinized at 90% confluency and seeded at a density of 1×10^4 per well into 96-well plates with white wall and clear bottom. […] The concentration of all amino acids constituting the GAP mixture used in this assay are designated in the data tables, and fully described in the abbreviations list below. After one or two hours of pre-treatment with GAP (and additional test reagents where described), keratinocytes were then challenged with 25 uM menadione (Sigma-Aldrich), a known inducer of oxidative stress. […] In summary, after cell treatment, the media was removed and replaced with a cell lysis reagent for 5 minutes at 20-25° C.; note, all remaining steps were also conducted at 20-25° C. Next, a luciferase generation reagent was added to each well and incubated for 30 minutes. Following this step, a luciferin detection reagent was added to each well and plates were incubated for 15 minutes. Finally, plates were then read for luminescence in a FlexStation 3 plate reader (Molecular Devices). Total glutathione levels were calculated after interpolation of glutathione concentrations from a standard curve. Experimental conditions were typically conducted in at least triplicate determinations. Statistical significance was calculated using 1-way ANOVA. Percent protection was calculated by using the calculated glutathione levels from each experiment in the following equation: […]

[2] = system: Human Keratinocytes; assay: Reactive oxygen species (ROS) assay, CellROX green; conditions: for % Protection (improvement vs. vehicle control + menadione): ROS
Description: The medium was refreshed every other day. Subsequently, cells were trypsinized at 90% confluency and seeded at a density of 1-2×10^4 per well into 96-well plates with black wall and clear bottom. On the second day after seeding, cell medium was replaced with Hank's Balanced Salt Solution (HBSS) with or without menadione (10-25 uM), GAP (typically at 49 uM pyroglutamic acid, 60 uM cystine, 194 uM glycine), GAP vehicle (0.2 mM NaOH, pH 7.5), above-described additional test reagents, combinations of GAP with additional test reagents, or L-cystine esters alone and incubated for additional 18 hours. For ROS detection, CellROX green (Life Tech, Thermo Fisher Scientific, Rockford, USA) reagent was added into each well to a final concentration of 15-25 uM and incubated for additional 2-4 hours at 37° C. in a humidified incubator. The ROS fluorescence was detected using a Tecan microplate reader (Excitation/Emission=490/525). […] Where indicated, percent protection was calculated as a comparison to menadione alone treatment, using the measured relative fluorescent units in the following equation: ROS levels were evaluated together with cell viability because it is possible to get a false negative for ROS if treatment is so toxic that at the time of assay, cells are dead (and there are no longer any detectable ROS). Decrease in ROS levels is meaningful if cells are still viable.

[3] = system: Human Keratinocytes; assay: Cell viability assay (CCK-8); conditions: for % Protection (improvement vs. vehicle control + menadione): cell viability
Description: The medium was refreshed every other day. Subsequently, cells were trypsinized at 90% confluency and seeded at a density of 2×10^4 per well into 96-well transparent tissue culture plates. On the second day after seeding, cell medium was replaced with treatments as described above in ROS assay section. After 18 hours, […] (CCK-8) reagent (Dojindo, Kumamoto, Japan) was diluted 1:10 in HBSS and incubated with cells for 4 h at 37° C. in a humidified incubator. Optical absorption at 450 nm was measured using a Tecan Safire2 plate reader. […] Where indicated, percent protection was calculated as a comparison to menadione alone treatment, using the measured relative absorbance units in the following equation: […]

[4] = cystine ester at 80 uM + menadione
[5] = cystine ester at 20 uM + menadione
[6] = cystine ester at 40 uM + menadione
[7] = cystine ester at 160 uM + menadione
[8] = Table 1A glutathione, test reagent at 0.5 mM, alone or with GAP 10, + 25 uM menadione
[9] = nicotinamide / nicotinamide riboside / picolinamide at 0.5 mM, alone or with GAP 10, + 25 uM menadione
[10] = Table 1A glutathione, test reagent at 5 mM, alone or with GAP 10, + 25 uM menadione
[11] = Table 1A glutathione, test reagent at 10 mM, alone or with GAP 10, + 25 uM menadione
[12] = nicotinamide / picolinamide at 5 mM, alone or with GAP 10, + 25 uM menadione
[13] = nicotinamide / picolinamide at 10 mM, alone or with GAP 10, + 25 uM menadione
[14] = Table 1B, vs menadione alone, nicotinamide 10 mM, GAP typically 49/60/194 uM

Compound	Mean (μm glutathione) [1, 4]	% Protection (improvement vs. vehicle control + menadione) [1, 4]	% Protection (improvement vs. vehicle control + menadione) [2, 5]	% Protection (improvement vs. vehicle control + menadione) [2, 6]	% Protection (improvement vs. vehicle control + menadione) [2, 4]	% Protection (improvement vs. vehicle control + menadione) [2, 7]	% Protection (improvement vs. vehicle control + menadione) [3, 5]	% Protection (improvement vs. vehicle control + menadione) [3, 6]	% Protection (improvement vs. vehicle control + menadione) [3, 4]	% Protection (improvement vs. vehicle control + menadione) [3, 7]	Cell viability (% of vehicle control) [3, 5]	Cell viability (% of vehicle control) [3, 6]	Cell viability (% of vehicle control) [3, 4]	Cell viability (% of vehicle control) [3, 7]	Mean (μm glutathione) [1, 6]	% Protection (improvement vs. vehicle control + menadione) [1, 6]	% Protection [1, 8] [%]	Mean (uM glutathione) [1, 9] [µM]	% Protection [1, 10] [%]	% Protection [1, 11] [%]	other results
COC(=O)[C@@H](N)CSSC[C@H](N)C(=O)OC.Cl.Cl [CDME, L-Cystine dimethyl ester dihydrochloride]	1.09^1,2 μm	31^1,2%	18.2^2%	15.5^1,2%	13.3^1,2%	25.7^2%	30.2^1,2%	33.4^1,2%	24.6^1,2%	51.7^1,2%	90.9^1,2 % of vehicle control	93.1^1,2 % of vehicle control	87.0^1,2 % of vehicle control	105.9^1,2 % of vehicle control	–	–	–	–	–	–	–
CCOC(=O)[C@@H](N)CSSC[C@H](N)C(=O)OCC.Cl.Cl [DEC, Diethyl L-cystinate dihydrochloride]	2.72^1,2 μm	93^1,2%	38.0^1,2%	43.6^1,2%	37.7^1,2%	32.4^1,2%	48.9^2%	72.7^1,2%	78.3^1,2%	65.9^1,2%	109.8^2 % of vehicle control	127.3^1,2 % of vehicle control	131.5^1,2 % of vehicle control	122.3^1,2 % of vehicle control	0.54^1,2 μm	13^1,2%	–	–	–	–	–
CC(C)(C)OC(=O)[C@@H](N)CSSC[C@H](N)C(=O)OC(C)(C)C.Cl.Cl [DTBC, Ditert-butyl L-cystinate dihydrochloride]	0.19^1 μm	1^1%	2.2%	13.8^1,2%	28.4^1,2%	41.1^1,2%	6.0%	3.0%	−0.1%	41.3^2%	78.1^1 % of vehicle control	75.9^1 % of vehicle control	73.6^1 % of vehicle control	104.2^2 % of vehicle control	0.17^1 μm	0^1%	–	–	–	–	–
NC(=O)c1ccc[n+]([C@@H]2O[C@H](CO)[C@@H](O)[C@H]2O)c1 [Nicotinamide riboside, nicotinamide riboside]	–	–	–	–	–	–	–	–	–	–	–	–	–	–	–	–	0	0.16	–	–	–
NC(=O)c1cccnc1 [Nicotinamide]	–	–	–	–	–	–	–	–	–	–	–	–	–	–	–	–	0	0.17	0	1	Mean (uM glutathione) [1, 12]: 0.14 µM; Mean (uM glutathione) [1, 13]: 0.20 µM; % Protection ([1]; Table 2A glutathione, nicotinamide at 5 mM, alone or with amino acids, + menadione): 3^1%; Mean (Glutathione Synthesis) ([1]; Table 2A, nicotinamide at 5 mM, alone or with amino acids, + menadione): 0.13^1; ROS production (% of control) ([2]; Table 1B, + menadione, 18 h, nicotinamide 10 mM, GAP typically 49 uM pyroglutamic acid, 60 uM cystine, 194 uM glycine): 231.00^3 % of control; % Protection (ROS) [2, 14]: 17.70^3%; cell viability (% of control) ([3]; Table 1B, + menadione, 18 h, nicotinamide 10 mM, GAP typically 49/60/194 uM): 92.90^3 % of control; % Protection (cell viability) [3, 14]: 15.41^3%
NC(=O)c1ccccn1 [Picolinamide, picolinamide]	–	–	–	–	–	–	–	–	–	–	–	–	–	–	–	–	2	0.23	0	0	Mean (uM glutathione) [1, 12]: 0.18 µM; Mean (uM glutathione) [1, 13]: 0.16 µM
